The NIST ThermoML archive (doi:10.1016/j.jct.2017.07.014)
Numbers after ± are expanded uncertainties.

Tests used:
[1] = refractive index (other wavelength) (dimensionless); xn = mol fraction of the nth substance listed; details: 108 kPa, Liquid, Wavelength=632.8 nm, minimum deviation method
[2] = molar heat capacity at constant pressure; xn = mol fraction of the nth substance listed; details: 102.6 kPa, Liquid, Large sample (1 g) DSC, x1 = 0.107

CCCCn1cc[n+](C)c1.F[P-](F)(F)(F)(F)F [1-butyl-3-methylimidazolium hexafluorophosphate] + CCO
[1]
Details	refractive index
315.21 K, x1 = 1	1.4038 ± 0.0003
317.26 K, x1 = 1	1.4032 ± 0.0003
319.23 K, x1 = 1	1.4027 ± 0.0003
320.24 K, x1 = 0.3	1.3841 ± 0.0002
320.24 K, x1 = 0.4	1.3889 ± 0.0002
320.24 K, x1 = 0.901	1.4008 ± 0.0003
320.25 K, x1 = 0.6	1.3951 ± 0.0003
320.25 K, x1 = 0.7	1.3973 ± 0.0003
320.26 K, x1 = 0.801	1.3992 ± 0.0003
320.27 K, x1 = 0.5	1.3923 ± 0.0002
321.27 K, x1 = 0.3	1.3838 ± 0.0003
321.27 K, x1 = 0.801	1.3989 ± 0.0003
321.27 K, x1 = 0.901	1.4005 ± 0.0003
321.28 K, x1 = 0.7	1.3971 ± 0.0003
321.29 K, x1 = 0.4	1.3886 ± 0.0002
321.29 K, x1 = 0.6	1.3949 ± 0.0003
321.35 K, x1 = 0.5	1.392 ± 0.0002
321.47 K, x1 = 1	1.4021 ± 0.0003
322.24 K, x1 = 0.3	1.3835 ± 0.0002
322.27 K, x1 = 0.7	1.3968 ± 0.0003
322.27 K, x1 = 0.901	1.4002 ± 0.0003
322.29 K, x1 = 0.4	1.3884 ± 0.0002
322.29 K, x1 = 0.5	1.3918 ± 0.0002
322.29 K, x1 = 0.6	1.3945 ± 0.0003
322.29 K, x1 = 0.801	1.3987 ± 0.0003
323.24 K, x1 = 0.901	1.4 ± 0.0003
323.25 K, x1 = 0.3	1.3832 ± 0.0002
323.27 K, x1 = 0.5	1.3915 ± 0.0002
323.28 K, x1 = 0.801	1.3984 ± 0.0003
323.3 K, x1 = 0.4	1.388 ± 0.0002
323.3 K, x1 = 0.6	1.3943 ± 0.0003
323.3 K, x1 = 0.7	1.3965 ± 0.0003
323.47 K, x1 = 1	1.4016 ± 0.0003
323.58 K, x1 = 0.2	1.3759 ± 0.0003
324.23 K, x1 = 0.801	1.3981 ± 0.0003
324.23 K, x1 = 0.901	1.3997 ± 0.0003
324.24 K, x1 = 0.7	1.3962 ± 0.0003
324.26 K, x1 = 0.3	1.3828 ± 0.0002
324.28 K, x1 = 0.4	1.3877 ± 0.0002
324.28 K, x1 = 0.6	1.394 ± 0.0003
324.3 K, x1 = 0.5	1.3912 ± 0.0002
324.56 K, x1 = 0.2	1.3756 ± 0.0003
325.26 K, x1 = 0.801	1.3979 ± 0.0003
325.28 K, x1 = 0.4	1.3874 ± 0.0002
325.28 K, x1 = 0.6	1.3938 ± 0.0003
325.31 K, x1 = 0.3	1.3825 ± 0.0002
325.31 K, x1 = 0.901	1.3994 ± 0.0003
325.32 K, x1 = 0.7	1.396 ± 0.0003
325.34 K, x1 = 0.5	1.3909 ± 0.0002
325.4 K, x1 = 1	1.4011 ± 0.0003
325.42 K, x1 = 0.1	1.3647 ± 0.0004
325.63 K, x1 = 0.2	1.3753 ± 0.0003
326.48 K, x1 = 0.4	1.387 ± 0.0002
326.51 K, x1 = 0.3	1.3822 ± 0.0002
326.58 K, x1 = 0.801	1.3975 ± 0.0003
326.59 K, x1 = 0.901	1.3991 ± 0.0003
326.6 K, x1 = 0.5	1.3905 ± 0.0002
326.6 K, x1 = 0.6	1.3934 ± 0.0003
326.61 K, x1 = 0.7	1.3956 ± 0.0003
326.64 K, x1 = 0.1	1.3643 ± 0.0003
327.05 K, x1 = 0.2	1.3748 ± 0.0003
327.64 K, x1 = 0.4	1.3867 ± 0.0002
327.65 K, x1 = 0.5	1.3902 ± 0.0002
327.67 K, x1 = 0.6	1.3931 ± 0.0003
327.73 K, x1 = 0.7	1.3953 ± 0.0003
327.75 K, x1 = 0.3	1.3817 ± 0.0002
327.86 K, x1 = 0.1	1.3639 ± 0.0003
327.91 K, x1 = 0.901	1.3987 ± 0.0003
327.93 K, x1 = 0.801	1.3972 ± 0.0003
328.27 K, x1 = 0.2	1.3744 ± 0.0003
328.91 K, x1 = 0.1	1.3636 ± 0.0003
329.44 K, x1 = 0.1	1.3634 ± 0.0003

[2]
Details	molar heat capacity at constant pressure [J/K/mol]
314.31 K	176.72 ± 3
314.64 K	177.08 ± 3
314.97 K	177.44 ± 3.1
315.29 K	177.86 ± 3.1
315.62 K	178.15 ± 3.1
315.94 K	178.8 ± 3.1
316.27 K	179.08 ± 3.1
316.59 K	179.58 ± 3.1
316.92 K	179.87 ± 3.1
317.24 K	180.44 ± 3.1
317.57 K	180.87 ± 3.1
317.89 K	181.23 ± 3.1
318.22 K	181.8 ± 3.1
318.55 K	182.3 ± 3.1
318.87 K	182.66 ± 3.1
319.19 K	183.3 ± 3.1
319.52 K	183.87 ± 3.1
319.85 K	184.38 ± 3.1
320.17 K	184.88 ± 3.1
320.5 K	185.38 ± 3.1
320.82 K	186.02 ± 3.1
321.15 K	186.45 ± 3.1
321.47 K	187.09 ± 3.1
321.8 K	187.95 ± 3.1
322.12 K	188.6 ± 3.1
322.45 K	189.38 ± 3.2
322.77 K	190.17 ± 3.2
323.1 K	190.89 ± 3.2
323.42 K	191.96 ± 3.2
323.75 K	192.96 ± 3.2
324.07 K	194.61 ± 3.3
324.4 K	195.89 ± 3.3
324.73 K	198.26 ± 3.5
325.05 K	201.76 ± 3.6
325.38 K	205.34 ± 3.8
325.7 K	210.28 ± 5.2
326.03 K	181.08 ± 5.9
326.35 K	178.08 ± 3.1
326.68 K	176.79 ± 3.1
327 K	175.93 ± 3.1
327.33 K	175.36 ± 3.1
327.65 K	174.93 ± 3.1
327.98 K	174.57 ± 3.1
328.31 K	174.36 ± 3.1
328.63 K	174.29 ± 3.1
328.96 K	174.07 ± 3.1
329.28 K	173.93 ± 3.1
329.61 K	173.79 ± 3.1
329.93 K	173.72 ± 3.1
330.26 K	173.64 ± 3.1
330.58 K	173.57 ± 3.1
330.91 K	173.5 ± 3.1
331.23 K	173.43 ± 3.1
331.56 K	173.43 ± 3.1
331.88 K	173.43 ± 3.1
332.21 K	173.43 ± 3.1
332.53 K	173.29 ± 3.1
332.86 K	173.43 ± 3.1
333.19 K	173.43 ± 3.1
333.51 K	173.43 ± 3.1
333.84 K	173.36 ± 3.1
334.16 K	173.5 ± 3.1
334.49 K	173.57 ± 3.1
334.81 K	173.72 ± 3.1
335.14 K	173.86 ± 3.1
335.46 K	174.22 ± 3.1
335.78 K	173.72 ± 3.1
336.09 K	173.29 ± 3.1
336.38 K	173.07 ± 3.1
336.76 K	172.93 ± 3.1
337.09 K	172.79 ± 3.1
337.41 K	173.5 ± 3.1
337.74 K	174.07 ± 3.1
338.06 K	174.07 ± 3.1
338.39 K	174.14 ± 3.1
338.72 K	174.43 ± 3.1
339.05 K	174.22 ± 3.1
339.35 K	174.07 ± 3.1
339.69 K	174.72 ± 3.1
340.04 K	174.72 ± 3.1
340.35 K	175.07 ± 3.1
340.66 K	175.58 ± 3.1
340.99 K	175.29 ± 3.1
341.32 K	175.07 ± 3.1
341.64 K	175 ± 3.1
341.98 K	175.29 ± 3.1
342.3 K	174.93 ± 3.1
342.6 K	175.58 ± 3.1
342.93 K	175.43 ± 3.1
343.26 K	175.79 ± 3.1
343.6 K	175.65 ± 3.1
343.91 K	175.72 ± 3.1
344.24 K	175.72 ± 3.1
344.56 K	175.79 ± 3.1
344.9 K	175.86 ± 3.1
345.21 K	176.08 ± 3.1
345.55 K	175.93 ± 3.1
345.87 K	175.86 ± 3.1
346.19 K	176.15 ± 3.1
346.54 K	176.65 ± 3.1
346.86 K	176.43 ± 3.1
347.17 K	177.08 ± 3.1
347.51 K	176.72 ± 3.1
347.82 K	176.65 ± 3.1
348.15 K	176.79 ± 3.1
